In PMC8836179, “Transport Turnover Rates for Human OCT2 and MATE1 Expressed in Chinese Hamster Ovary Cells” (International Journal of Molecular Sciences, 2022):
“And” between values parts separate entries of the source, which are not always exact repeats. Equal values may be shown once.

Legend:
[1] = molecular target: T1, hMATE1 (Homo sapiens, UniProt Q96FL8); test: MATE1-mediated substrate uptake kinetics and turnover rate in stably expressing CHO cells; type: in vitro ADME; conditions: for Jmax (maximum rate of mediated substrate transport) / Kt (Ktapp, apparent Michaelis constant): CHO cells stably expressing MATE1, 60-s uptakes, outwardly-directed H+ gradient (ammonia pulse), mean ± SD; for TOR (turnover rate): Jmax divided by cell surface MATE1 abundance (21.9 ± 18.1 fmol cm^−2), CHO cells
T1 construct: expressed in transfected cells; vector pcDNA5/FRT/V5-His TOPO
T1 sequence (Q96FL8 1-570): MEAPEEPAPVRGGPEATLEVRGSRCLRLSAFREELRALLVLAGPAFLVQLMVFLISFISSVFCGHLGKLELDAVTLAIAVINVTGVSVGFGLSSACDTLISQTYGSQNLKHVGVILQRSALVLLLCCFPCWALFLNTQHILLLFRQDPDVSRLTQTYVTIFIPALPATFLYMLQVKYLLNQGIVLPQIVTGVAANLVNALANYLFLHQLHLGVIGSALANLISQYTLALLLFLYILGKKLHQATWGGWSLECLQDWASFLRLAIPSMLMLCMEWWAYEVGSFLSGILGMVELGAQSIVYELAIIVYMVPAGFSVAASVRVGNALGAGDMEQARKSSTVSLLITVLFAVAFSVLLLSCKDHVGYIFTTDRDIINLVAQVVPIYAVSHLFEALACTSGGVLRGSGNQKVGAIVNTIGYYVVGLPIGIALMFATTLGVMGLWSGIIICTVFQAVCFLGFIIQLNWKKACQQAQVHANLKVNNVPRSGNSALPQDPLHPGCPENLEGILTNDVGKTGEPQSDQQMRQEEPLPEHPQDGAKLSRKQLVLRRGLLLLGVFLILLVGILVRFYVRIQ
Experimental: (§1) The calculation of TOR values involved dividing the maximal rates of substrate transport (Jmax) by the number of cell-surface-expressed transporters (Table 1).
(§2) Chinese hamster ovary (CHO) cells with a single integrated Flp-In recombination site were obtained from Invitrogen (Carlsbad, CA, USA). […] Cells were passaged every 3–4 days and maintained at 37 °C in a humidified environment with 5% CO2. Continued expression of MATE1 and OCT2 in these cell lines was maintained using hygromycin (200 µg/mL; Invitrogen, Carlsbad, CA) selection pressure; continued expression of the Flp-In recombination site in wild-type (WT; non-transporter expressing) CHO cells was maintained using Zeocin (100 µg/mL; Invitrogen) selection pressure. When seeded into 96-well plates (Greiner; VWR Intl., Arlington Heights, IL, USA) for transport assays, cells were grown to confluence in antibiotic-free medium.
(§3) Cells were seeded in 96 well plates with 200 µL of cell media containing 550,000 cells/mL or 275,000 cells/mL, and experiments were performed 24 or 48 h later, respectively. To begin an experiment, media was aspirated and the wells were washed for three cycles over 12 s with 300 µL of room temperature (~23 °C) Waymouth Buffer (WB; 135 mM NaCl, 13 mM HEPES, 2.5 mM CaCl2·2H2O, 1.2 mM MgCl2, 0.8 mM MgSO4·7H2O, 5 mM KCl, and 28 mM D-glucose; pH 7.4) using an automatic microplate washer (Model 405, BioTek, Winooski, VT, USA). For studies of OCT2-mediated transport, uptake was initiated by addition of 60 µL of WB containing radiolabeled substrate and other compounds, as needed. For studies of MATE1-mediated transport, the cells (MATE1-expressing and control cells) were exposed to an ammonia pulse method that we previously used to elevate cytoplasmic [H^+] to a level (~6.0 pH; [61]) that effectively saturates the cytoplasmic face of the exchanger with H^+ [51]. Briefly, cells were preincubated for 20 min (room temp) in buffer containing 20 mM NH4Cl (the first step in establishing an outwardly-directed H^+ gradient; [60]). Plates were then placed in the automatic fluid aspirator/dispenser and rinsed/aspirated three times with room temperature WB (pH 7.4), and transport was initiated by aspirating this medium and replacing it with 60 µL of an NH4Cl-free medium containing labeled substrate, thereby, establishing a trans H^+ gradient, qualitatively similar to the conditions that support MATE1-mediated transport in renal proximal tubules. For all experiments, transport buffers were added using a VIAFLO 96-well multichannel pipet (Integra Biosciences, Hudson, NH, USA). At specified time intervals, transport was terminated by rinsing with three cycles of cold WB (300 µL). Following rinsing and final aspiration, 200 µL of scintillation cocktail (Microscint 20, Perkin-Elmer, Waltham, MA, USA) was added to each well. The plates were sealed (Topseal-A, Perkin Elmer), and after sitting for at least two hours, accumulated radioactivity was determined in a six-channel multiwell scintillation counter (Wallac Trilux 1450 Microbeta, Perkin-Elmer).
(§4) The method described here is a minor modification of that described by Pelis et al..

[2] = molecular target: T2, hOCT2 (Homo sapiens, UniProt O15244); test: OCT2-mediated substrate uptake kinetics and turnover rate in stably expressing CHO cells; type: in vitro ADME; conditions: for Jmax (maximum rate of mediated substrate transport) / Kt (Ktapp, apparent Michaelis constant): CHO cells stably expressing OCT2, 60-s uptakes, pH 7.4, mean ± SD; for TOR (turnover rate): Jmax divided by cell surface OCT2 abundance (154 ± 70.7 fmol cm^−2), CHO cells
T2 construct: expressed in transfected cells; vector pcDNA5/FRT/V5-His TOPO
T2 sequence (O15244 1-555): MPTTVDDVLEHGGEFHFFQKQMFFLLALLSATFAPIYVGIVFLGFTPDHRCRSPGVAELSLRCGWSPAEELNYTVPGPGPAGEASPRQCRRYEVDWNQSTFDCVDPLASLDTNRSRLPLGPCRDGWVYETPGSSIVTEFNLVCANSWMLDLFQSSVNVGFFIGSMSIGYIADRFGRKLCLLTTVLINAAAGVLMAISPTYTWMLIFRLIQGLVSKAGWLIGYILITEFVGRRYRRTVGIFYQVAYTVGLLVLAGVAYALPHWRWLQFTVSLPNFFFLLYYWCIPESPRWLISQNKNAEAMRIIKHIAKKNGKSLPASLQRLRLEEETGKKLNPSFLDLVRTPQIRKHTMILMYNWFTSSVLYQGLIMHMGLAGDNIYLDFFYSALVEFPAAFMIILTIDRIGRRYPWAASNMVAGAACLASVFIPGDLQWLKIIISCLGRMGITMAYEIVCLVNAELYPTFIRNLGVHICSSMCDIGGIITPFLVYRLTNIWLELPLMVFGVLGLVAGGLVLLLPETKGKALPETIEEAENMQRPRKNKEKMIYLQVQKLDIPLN
Experimental: as §1, §2, §3, §4

CN(C)C(=N)N=C(N)N [Metformin, metformin]
Jmax (maximum rate of mediated substrate transport) [1]: 1802 ± 1147 pmol cm^−2 min^−1 and 1802 ± 1147 (n = 4) pmol cm^−2 min^−1
Kt (Ktapp, apparent Michaelis constant) [1]: 664 ± 302 µM
Jmax (maximum rate of mediated substrate transport) ([1]; listed as metformin): 1802 ± 1147 pmol cm^−2 min^−1
TOR (turnover rate) [1]: 1894 ± 1282 s⁻¹
TOR (turnover rate) ([1]; listed as metformin): ~ 1900 s^−1
Jmax (maximum rate of mediated substrate transport) [2]: 509 ± 39 pmol cm^−2 min^−1 and 509 ± 39.0 (n = 2) pmol cm^−2 min^−1
Kt (Ktapp, apparent Michaelis constant) [2]: 427 ± 48 µM and 427 ± 48.0 µM
Jmax (maximum rate of mediated substrate transport) ([2]; listed as metformin): 509 ± 39 pmol cm^−2 min^−1 and 509 pmol cm^−2 min^−1
Kt (Ktapp, apparent Michaelis constant) ([2]; listed as metformin): 427 ± 48 µM
TOR (turnover rate) [2]: 70 s⁻¹

C[n+]1ccc(-c2ccccc2)cc1 [MPP, 1-Methyl-4-phenylpyridinium]
Jmax (maximum rate of mediated substrate transport) [1]: 241 ± 85 pmol cm^−2 min^−1 and 241 ± 84.9 (n = 4) pmol cm^−2 min^−1
Kt (Ktapp, apparent Michaelis constant) [1]: 66 ± 6.8 µM
TOR (turnover rate) [1]: 297 ± 201 s⁻¹
Jmax (maximum rate of mediated substrate transport) [2]: 59 ± 6.6 pmol cm^−2 min^−1 and 58.5 ± 6.6 pmol cm^−2 min^−1 and 58 pmol cm^−2 min^−1 and 58.5 ± 6.6 (n = 3) pmol cm^−2 min^−1
Kt (Ktapp, apparent Michaelis constant) [2]: 17.5 ± 2.1 µM
TOR (turnover rate) [2]: 7.1 ± 2.4 s⁻¹

CC(C)NCC(O)COc1ccc(CC(N)=O)cc1 (stereo not drawn) [Atenolol, atenolol]
Kt (Ktapp, apparent Michaelis constant) [1]: 354 ± 96 µM and 354 ± 95.9 µM
Kt (Ktapp, apparent Michaelis constant) ([1]; listed as atenolol): 354 ± 96 µM
